Assay: recombinant barcode read abundance after kanamycin selection (control-corrected) (log10(CPM+1)); higher = more efficient recombination; sequences stand for … in AGTGCAGAGAAAATCGGCCAGTTTTCTCTGCCTGCAGTCCGCATGCCGT…AGATTTATGCAGCGGACTGCCTTTCTCCCAAAGTGATAAACCGGACAGTATCATGGACCGGTTTTCCCGGTAATCCGTATTTGCAAGGTTGGTTTCACT; site = the 11-nt target
Method: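 Pooled E. coli target-specificity screen for the IS621 bridge recombinase. Each library plasmid pairs an 11-nt target (CT core) with a bridge RNA whose target-binding loop (9-nt LTG + 4-nt RTG) is reprogrammed; the rest of the 177-nt WT IS621 bridge RNA scaffold is fixed. The plasmid is co-electroporated with a WT donor plasmid; recombinase is induced with 0.1 mM IPTG and recombinants are selected on kanamycin. Recombinant barcodes are sequenced, converted to CPM, averaged over two biological replicates and corrected by the unselected control CPM. Molecule = full bridge RNA written as DNA: LTG = specificity nt 1-9, RTG = reverse complement of specificity nt 8-11, in the WT scaffold.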
In the case of “AGACCTTCTTGGGTTCTAACCTGTTGCCT (site ACACCGTCTAG)”, the “recombinant barcode read abundance (log10)” value is reported as 0.0168.
For “AGACCTTCTTGGGTTCTAACCTGTTGCCT (site AGACCTTCTAG)”, the “recombinant barcode read abundance (log10)” value was 1.55.
For “AGACGTACTTGGGTTCTAACCTGTTGCGT (site AGACGTACTAC)”, the “recombinant barcode read abundance (log10)” value was 1.82.
For “AGACGTACTTGGGTTCTAACCTGTTGCGT (site TAGTTATCTTA)”, the “recombinant barcode read abundance (log10)” value was 0.102.
In the case of “AGAGAGACTTGGGTTCTAACCTGTTGCAC (site AGAGAGACTGT)”, the “recombinant barcode read abundance (log10)” value is reported as 2.18.
With “AGAGAGACTTGGGTTCTAACCTGTTGCAC (site TGATAGACTGT)” the “recombinant barcode read abundance (log10)” value was 0.169.
For “AGAGAGACTTGGGTTCTAACCTGTTGCCT (site AGAGAGACTAG)”, the “recombinant barcode read abundance (log10)” value was 2.43.
With “AGAGAGACTTGGGTTCTAACCTGTTGCCT (site AGAGCGACTAG)” the “recombinant barcode read abundance (log10)” value was 0.0685.
In the case of “AGAGAGACTTGGGTTCTAACCTGTTGCCT (site AGAGGGACTAG)”, the “recombinant barcode read abundance (log10)” value is reported as 0.27.
For “AGAGAGACTTGGGTTCTAACCTGTTGCCT (site AGAGTGACTAG)”, the “recombinant barcode read abundance (log10)” value was 0.185.
With “AGAGCCTCTTGGGTTCTAACCTGTTGCTA (site AGAGCCTCTTA)” the “recombinant barcode read abundance (log10)” value was 2.36.
In the case of “AGAGCCTCTTGGGTTCTAACCTGTTGCTA (site TTCAGGGCTCT)”, the “recombinant barcode read abundance (log10)” value is reported as 0.0371.
With “AGATCATCTTGGGTTCTAACCTGTTGCTT (site AGACCATCTAG)” the “recombinant barcode read abundance (log10)” value was 0.0425.
In the case of “AGATCATCTTGGGTTCTAACCTGTTGCTT (site AGATCATCTAA)”, the “recombinant barcode read abundance (log10)” value is reported as 0.278.
In the case of “AGATCCGCTTGGGTTCTAACCTGTTGCCT (site AGATCCGCTAG)”, the “recombinant barcode read abundance (log10)” value is reported as 1.3.
For “AGATCCGCTTGGGTTCTAACCTGTTGCCT (site CGGTCCGCTAG)”, the “recombinant barcode read abundance (log10)” value was 0.346.
For “AGATCTCCTTGGGTTCTAACCTGTTGCCT (site AGAGCTCCTCG)”, the “recombinant barcode read abundance (log10)” value was 0.231.
In the case of “AGATCTCCTTGGGTTCTAACCTGTTGCCT (site AGATCTCCTAG)”, the “recombinant barcode read abundance (log10)” value is reported as 0.313.
With “AGATGGCCTTGGGTTCTAACCTGTTGCAT (site AGATGGACTCT)” the “recombinant barcode read abundance (log10)” value was 0.152.
With “AGATGGCCTTGGGTTCTAACCTGTTGCAT (site AGATGGCCTAT)” the “recombinant barcode read abundance (log10)” value was 0.991.
In the case of “AGATGTACTTGGGTTCTAACCTGTTGCTG (site ACATGTACTCT)”, the “recombinant barcode read abundance (log10)” value is reported as 0.0665.
In the case of “AGATGTACTTGGGTTCTAACCTGTTGCTG (site AGATGTACTCA)”, the “recombinant barcode read abundance (log10)” value is reported as 0.958.
For “AGATTAGCTTGGGTTCTAACCTGTTGCCG (site AGATTAGCTCG)”, the “recombinant barcode read abundance (log10)” value was 1.13.
In the case of “AGATTAGCTTGGGTTCTAACCTGTTGCCG (site GCGGATCCTTA)”, the “recombinant barcode read abundance (log10)” value is reported as 0.0251.
For “AGATTTCCTTGGGTTCTAACCTGTTGCCT (site AAATTTCCTAG)”, the “recombinant barcode read abundance (log10)” value was 0.0272.
In the case of “AGATTTCCTTGGGTTCTAACCTGTTGCCT (site ACATTTCCTAG)”, the “recombinant barcode read abundance (log10)” value is reported as 0.218.
With “AGATTTCCTTGGGTTCTAACCTGTTGCCT (site AGATTTCCTAG)” the “recombinant barcode read abundance (log10)” value was 0.326.
For “AGATTTCCTTGGGTTCTAACCTGTTGCCT (site ATATTTCCTAG)”, the “recombinant barcode read abundance (log10)” value was 0.234.
For “AGCAACCCTTGGGTTCTAACCTGTTGCAA (site AGCAACCCTTT)”, the “recombinant barcode read abundance (log10)” value was 0.829.
For “AGCAACCCTTGGGTTCTAACCTGTTGCAA (site CCGGGTACTCG)”, the “recombinant barcode read abundance (log10)” value was 0.0862.
With “AGCACAACTTGGGTTCTAACCTGTTGCCT (site AGAACAACTAG)” the “recombinant barcode read abundance (log10)” value was 0.0799.
With “AGCACAACTTGGGTTCTAACCTGTTGCCT (site AGCACAACTAG)” the “recombinant barcode read abundance (log10)” value was 0.734.
For “AGCACAACTTGGGTTCTAACCTGTTGCCT (site AGGACAACTAG)”, the “recombinant barcode read abundance (log10)” value was 0.0445.
With “AGCACAACTTGGGTTCTAACCTGTTGCCT (site AGTACAACTAG)” the “recombinant barcode read abundance (log10)” value was 0.498.
In the case of “AGCAGAGCTTGGGTTCTAACCTGTTGCAG (site AGCAGAGCTCA)”, the “recombinant barcode read abundance (log10)” value is reported as 0.631.
With “AGCAGAGCTTGGGTTCTAACCTGTTGCAG (site AGCAGAGCTCC)” the “recombinant barcode read abundance (log10)” value was 0.224.
In the case of “AGCAGAGCTTGGGTTCTAACCTGTTGCAG (site AGCAGAGCTCG)”, the “recombinant barcode read abundance (log10)” value is reported as 0.505.
For “AGCAGAGCTTGGGTTCTAACCTGTTGCAG (site AGCAGAGCTCT)”, the “recombinant barcode read abundance (log10)” value was 2.24.
With “AGCAGAGCTTGGGTTCTAACCTGTTGCCG (site AGCAGAGCTCA)” the “recombinant barcode read abundance (log10)” value was 0.0348.
In the case of “AGCAGAGCTTGGGTTCTAACCTGTTGCCG (site AGCAGAGCTCC)”, the “recombinant barcode read abundance (log10)” value is reported as 0.058.
In the case of “AGCAGAGCTTGGGTTCTAACCTGTTGCCG (site AGCAGAGCTCG)”, the “recombinant barcode read abundance (log10)” value is reported as 1.15.
With “AGCAGAGCTTGGGTTCTAACCTGTTGCCG (site AGCAGAGCTCT)” the “recombinant barcode read abundance (log10)” value was 0.465.
With “AGCAGTGCTTGGGTTCTAACCTGTTGCCT (site AGCAGTGCTAG)” the “recombinant barcode read abundance (log10)” value was 0.686.
With “AGCAGTGCTTGGGTTCTAACCTGTTGCCT (site AGCATTCCTAG)” the “recombinant barcode read abundance (log10)” value was 0.0332.
With “AGCATCCCTTGGGTTCTAACCTGTTGCTG (site AGCATCCCTCA)” the “recombinant barcode read abundance (log10)” value was 1.47.
In the case of “AGCATCCCTTGGGTTCTAACCTGTTGCTG (site CATGCGACTAC)”, the “recombinant barcode read abundance (log10)” value is reported as 0.342.
With “AGCCACTCTTGGGTTCTAACCTGTTGCCT (site AGCCACACTAG)” the “recombinant barcode read abundance (log10)” value was 0.0426.
For “AGCCACTCTTGGGTTCTAACCTGTTGCCT (site AGCCACCCTAG)”, the “recombinant barcode read abundance (log10)” value was 0.149.
With “AGCCACTCTTGGGTTCTAACCTGTTGCCT (site AGCCACGCTAG)” the “recombinant barcode read abundance (log10)” value was 0.153.
In the case of “AGCCACTCTTGGGTTCTAACCTGTTGCCT (site AGCCACTCTAG)”, the “recombinant barcode read abundance (log10)” value is reported as 1.49.
For “AGCCAGGCTTGGGTTCTAACCTGTTGCGG (site AGCCAGGCTCC)”, the “recombinant barcode read abundance (log10)” value was 1.76.
In the case of “AGCCAGGCTTGGGTTCTAACCTGTTGCGG (site TCGTTTCCTAT)”, the “recombinant barcode read abundance (log10)” value is reported as 0.0575.
For “AGCCCTCCTTGGGTTCTAACCTGTTGCAG (site AGCCCTCCTCT)”, the “recombinant barcode read abundance (log10)” value was 1.86.
In the case of “AGCCCTCCTTGGGTTCTAACCTGTTGCAG (site GAAATAACTAC)”, the “recombinant barcode read abundance (log10)” value is reported as 0.114.
With “AGCCCTCCTTGGGTTCTAACCTGTTGCAT (site AGCCCTCCTAT)” the “recombinant barcode read abundance (log10)” value was 1.41.
For “AGCCCTCCTTGGGTTCTAACCTGTTGCAT (site AGCGCTCCTAC)”, the “recombinant barcode read abundance (log10)” value was 0.0462.
In the case of “AGCCCTCCTTGGGTTCTAACCTGTTGCTA (site AGCCCTCCTAA)”, the “recombinant barcode read abundance (log10)” value is reported as 0.0446.
In the case of “AGCCCTCCTTGGGTTCTAACCTGTTGCTA (site AGCCCTCCTCA)”, the “recombinant barcode read abundance (log10)” value is reported as 0.449.
With “AGCCCTCCTTGGGTTCTAACCTGTTGCTA (site AGCCCTCCTGA)” the “recombinant barcode read abundance (log10)” value was 0.222.
For “AGCCCTCCTTGGGTTCTAACCTGTTGCTA (site AGCCCTCCTTA)”, the “recombinant barcode read abundance (log10)” value was 1.37.
In the case of “AGCCCTCCTTGGGTTCTAACCTGTTGCTG (site AGCCCTCCTAA)”, the “recombinant barcode read abundance (log10)” value is reported as 0.0691.
With “AGCCCTCCTTGGGTTCTAACCTGTTGCTG (site AGCCCTCCTCA)” the “recombinant barcode read abundance (log10)” value was 1.49.
With “AGCCCTCCTTGGGTTCTAACCTGTTGCTG (site AGCCCTCCTGA)” the “recombinant barcode read abundance (log10)” value was 0.109.
In the case of “AGCCCTCCTTGGGTTCTAACCTGTTGCTG (site AGCCCTCCTTA)”, the “recombinant barcode read abundance (log10)” value is reported as 0.0866.
In the case of “AGCCGAACTTGGGTTCTAACCTGTTGCCT (site AGCCGAACTAG)”, the “recombinant barcode read abundance (log10)” value is reported as 0.832.
In the case of “AGCCGAACTTGGGTTCTAACCTGTTGCCT (site CGCCGAACTAG)”, the “recombinant barcode read abundance (log10)” value is reported as 0.11.
In the case of “AGCCGAACTTGGGTTCTAACCTGTTGCCT (site GGCCGAACTAG)”, the “recombinant barcode read abundance (log10)” value is reported as 0.478.
In the case of “AGCCGAACTTGGGTTCTAACCTGTTGCCT (site TGCCGAACTAG)”, the “recombinant barcode read abundance (log10)” value is reported as 0.0692.
In the case of “AGCCTATCTTGGGTTCTAACCTGTTGCCA (site AGCCTATCTTG)”, the “recombinant barcode read abundance (log10)” value is reported as 0.101.
For “AGCCTATCTTGGGTTCTAACCTGTTGCCA (site CTAGCCGCTAA)”, the “recombinant barcode read abundance (log10)” value was 0.109.
For “AGCCTTACTTGGGTTCTAACCTGTTGCCT (site AACCTTACTAG)”, the “recombinant barcode read abundance (log10)” value was 0.106.
With “AGCCTTACTTGGGTTCTAACCTGTTGCCT (site ACCCTTACTAG)” the “recombinant barcode read abundance (log10)” value was 0.275.
For “AGCCTTACTTGGGTTCTAACCTGTTGCCT (site AGCCTTACTAG)”, the “recombinant barcode read abundance (log10)” value was 0.171.
With “AGCCTTACTTGGGTTCTAACCTGTTGCCT (site ATCCTTACTAG)” the “recombinant barcode read abundance (log10)” value was 0.122.
For “AGCCTTGCTTGGGTTCTAACCTGTTGCCT (site AGCATTGCTAG)”, the “recombinant barcode read abundance (log10)” value was 0.0195.
In the case of “AGCCTTGCTTGGGTTCTAACCTGTTGCCT (site AGCCTTGCTAG)”, the “recombinant barcode read abundance (log10)” value is reported as 0.7.
In the case of “AGCCTTGCTTGGGTTCTAACCTGTTGCCT (site AGCGTTGCTAG)”, the “recombinant barcode read abundance (log10)” value is reported as 0.566.
In the case of “AGCCTTGCTTGGGTTCTAACCTGTTGCCT (site AGCTTTGCTAG)”, the “recombinant barcode read abundance (log10)” value is reported as 0.167.
For “AGCGAAGCTTGGGTTCTAACCTGTTGCCT (site AGCGAAGCTAG)”, the “recombinant barcode read abundance (log10)” value was 0.382.
With “AGCGAAGCTTGGGTTCTAACCTGTTGCCT (site AGCGAGGCTAG)” the “recombinant barcode read abundance (log10)” value was 0.3.
With “AGCGAATCTTGGGTTCTAACCTGTTGCCT (site AGAGAATCTAG)” the “recombinant barcode read abundance (log10)” value was 0.0521.
With “AGCGAATCTTGGGTTCTAACCTGTTGCCT (site AGCGAATCTAG)” the “recombinant barcode read abundance (log10)” value was 0.719.

— the supplement of paper PMC11208160
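Note: IS621 recombinase and bridge RNA in Escherichia coli cells.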
